From patent US7691382B2, “Antiviral polypeptides comprising tandem repeats of APOE 141-149 and variants thereof” (priority 2003, dated 2010)
Peptide text beside a SMILES is read from it.

Tested on: HSV1
Assay type: cell-based, Human herpes simplex virus type 1
Details: for efficacy for reducing HSV1 infectivity (in words): Examples 2 and 3
Protocol: African Green Monkey Kidney (Vero) cells were maintained in Eagle's minimum essential medium with Earle's salt (EMEM) and supplemented with 10% foetal calf serum (heat-inactivated), 4 mM L-glutamine, and 1% (v/v) nonessential amino acids, plus penicillin and streptomycin (100 IU/mg and […], respectively) (maintenance medium referred to as 10% EMEM). The cells were incubated at 37° C. in a humidified atmosphere of air with 5% CO2.
On harvesting, monolayers were washed in phosphate-buffered saline (PBS), and dislodged by incubating with trypsin in PBS for 30 min, before inactivating trypsin by addition of an equal volume of 10% EMEM and centrifuging at 500 g (5 min, 4° C.). Cell pellets were resuspended in 10% EMEM, prior to cell counting and seeding of 24-well plates. For antiviral assays, medium containing only 0.5% FCS was used (referred to as 0.5% EMEM).
Three separate passages of HSV1 virus were prepared by infecting Vero cells, and preparing semi-pure suspensions of virus from tissue culture supernatant and cell lysates, before freezing aliquots of virus at −85° C. Viral infectivity was assessed by carrying out plaque assays on serial dilutions of thawed aliquots (expressed in pfu/ml).
Peptides were obtained in lyophilised form from a commercial supplier (AltaBioscience, University of Birmingham or Advanced Biomedical), and were produced at 5 micromole scale. N-terminals were protected by addition of an acetyl group, and the C-terminals were protected by addition of an amide group.
Small quantities of peptide were weighed in sterile Eppendorf tubes, before addition of sufficient 0.5% EMEM to produce a 1.5 mM stock solution, which was frozen at −20° C. in aliquots.
Vero cells were seeded at 125,000 cells per well in 10% EMEM, and were incubated overnight resulting in confluent monolayers. […] Virus stocks (p3) were thawed, and diluted in 0.5% EMEM such that there were around 100 pfu in 100 μl. Each 24-well plate was inoculated separately. Firstly 100 μl of virus stock was added to the peptide or control medium arranged on a 96-well plate. This was incubated at 37° C. for ten minutes before inoculation. Medium was removed from four wells of a 24-well plate containing confluent Vero, and the 200 μl inoculum added to the appropriate well. Once all wells were treated, the 24-well plate was incubated for a further 60-80 minutes. Finally the peptide-containing inoculum was removed, and 1 ml of 1% EMEM containing 1% carboxymethylcellulose was added to each well. Plates were incubated for a further 22 hours or in some experiments 40 hours, before removal of overlay, and addition of 10% formaldehyde in PBS. After a further one hour incubation, fixative was removed, monolayers washed several times with tap water, and stained with carbol fuchsin solubilised in water. After 30 minutes stain was removed, and plates washed several times with tap water, before being air dried. Plaques were counted using an Olympus IX70 Inverting Microscope, and antiviral effect expressed as a percentage of the control value for each peptide concentration. The IC50 was calculated from plots of inhibitory effect against peptide concentration.

Compound | IC50 [µM] | efficacy for reducing HSV1 infectivity (in words) | Apparent IC50 (HSV1, Vero cells, Table 4 (Example 2))
CC(=O)N[C@@H](CC(C)C)C(=O)N[C@@H](CCCNC(=N)N)C(=O)N[C@@H](CCC(N)=O)C(=O)N[C@@H](CC(C)C)C(=O)N[C@@H](CCCNC(=N)N)C(=O)N[C@@H](CCC(N)=O)C(=O)N[C@@H](CCCNC(=N)N)C(=O)N[C@@H](CC(C)C)C(=O)N[C@@H](CC(C)C)C(=O)N[C@@H](CC(C)C)C(=O)N[C@@H](CCCNC(=N)N)C(=O)N[C@@H](CCC(N)=O)C(=O)N[C@@H](CC(C)C)C(=O)N[C@@H](CCCNC(=N)N)C(=O)N[C@@H](CCC(N)=O)C(=O)N[C@@H](CCCNC(=N)N)C(=O)N[C@@H](CC(C)C)C(=O)N[C@@H](CC(C)C)C(N)=O [GIN 44] (Ac-LRQLRQRLLLRQLRQRLL-NH2) | 40 | – | –
CC(=O)N[C@@H](Cc1c[nH]c2ccccc12)C(=O)N[C@@H](CCCNC(=N)N)C(=O)N[C@@H](CCCCN)C(=O)N[C@@H](Cc1c[nH]c2ccccc12)C(=O)N[C@@H](CCCNC(=N)N)C(=O)N[C@@H](CCCCN)C(=O)N[C@@H](CCCNC(=N)N)C(=O)N[C@@H](Cc1c[nH]c2ccccc12)C(=O)N[C@@H](Cc1c[nH]c2ccccc12)C(=O)N[C@@H](Cc1ccccc1)C(=O)N[C@@H](CCCNC(=N)N)C(=O)N[C@@H](CCCCN)C(=O)N[C@@H](Cc1c[nH]c2ccccc12)C(=O)N[C@@H](CCCNC(=N)N)C(=O)N[C@@H](CCCCN)C(=O)N[C@@H](CCCNC(=N)N)C(=O)N[C@@H](Cc1c[nH]c2ccccc12)C(=O)N[C@@H](Cc1c[nH]c2ccccc12)C(N)=O [MU 60] (Ac-WRKWRKRWWFRKWRKRWW-NH2) | 4 | – | –
CC(=O)N[C@@H](CCC(N)=O)C(=O)N[C@@H](CCCNC(=N)N)C(=O)N[C@@H](CCCCN)C(=O)N[C@@H](CCC(N)=O)C(=O)N[C@@H](CCCNC(=N)N)C(=O)N[C@@H](CCCCN)C(=O)N[C@@H](CCCNC(=N)N)C(=O)N[C@@H](CCC(N)=O)C(=O)N[C@@H](CCC(N)=O)C(=O)N[C@@H](CCC(N)=O)C(=O)N[C@@H](CCCNC(=N)N)C(=O)N[C@@H](CCCCN)C(=O)N[C@@H](CCC(N)=O)C(=O)N[C@@H](CCCNC(=N)N)C(=O)N[C@@H](CCCCN)C(=O)N[C@@H](CCCNC(=N)N)C(=O)N[C@@H](CCC(N)=O)C(=O)N[C@@H](CCC(N)=O)C(N)=O [MU 9] (Ac-QRKQRKRQQQRKQRKRQQ-NH2) | > 30 | – | –
CC(=O)N[C@@H](CC(C)C)C(=O)N[C@@H](CCCNC(=N)N)C(=O)N[C@@H](CCCCN)C(=O)N[C@@H](CC(C)C)C(=O)N[C@@H](CCCNC(=N)N)C(=O)N[C@@H](CCCCN)C(=O)N[C@@H](CCCNC(=N)N)C(=O)N[C@@H](CC(C)C)C(=O)N[C@@H](CC(C)C)C(=O)N[C@@H](CCCNC(=N)N)C(=O)N[C@@H](CC(=O)O)C(=O)N[C@@H](C)C(=O)N[C@@H](CC(=O)O)C(=O)N[C@@H](CC(=O)O)C(=O)N[C@@H](CC(C)C)C(=O)N[C@@H](CCC(N)=O)C(=O)N[C@@H](CCCCN)C(=O)N[C@@H](CCCNC(=N)N)C(=O)N[C@@H](CC(C)C)C(=O)N[C@@H](C)C(N)=O [GIN 12, LRKLRKRLLR DADDLQKRLA] (Ac-LRKLRKRLLRDADDLQKRLA-NH2) | > 40 | no, or poor, efficacy | –
CC(=O)N[C@@H](CCC(=O)O)C(=O)N[C@@H](CCCNC(=N)N)C(=O)N[C@@H](CCCCN)C(=O)N[C@@H](CCC(=O)O)C(=O)N[C@@H](CCCNC(=N)N)C(=O)N[C@@H](CCCCN)C(=O)N[C@@H](CCCNC(=N)N)C(=O)N[C@@H](CCC(=O)O)C(=O)N[C@@H](CCC(=O)O)C(=O)N[C@@H](CCC(=O)O)C(=O)N[C@@H](CCCNC(=N)N)C(=O)N[C@@H](CCCCN)C(=O)N[C@@H](CCC(=O)O)C(=O)N[C@@H](CCCNC(=N)N)C(=O)N[C@@H](CCCCN)C(=O)N[C@@H](CCCNC(=N)N)C(=O)N[C@@H](CCC(=O)O)C(=O)N[C@@H](CCC(=O)O)C(N)=O [GIN 6] (Ac-ERKERKREEERKERKREE-NH2) | > 40 | no, or poor, efficacy | –
CC(=O)N[C@@H](CC(C)C)C(=O)N[C@@H](CCCCN)C(=O)N[C@@H](CCCCN)C(=O)N[C@@H](CC(C)C)C(=O)N[C@@H](CCCCN)C(=O)N[C@@H](CCCCN)C(=O)N[C@@H](CCCCN)C(=O)N[C@@H](CC(C)C)C(=O)N[C@@H](CC(C)C)C(=O)N[C@@H](CC(C)C)C(=O)N[C@@H](CCCCN)C(=O)N[C@@H](CCCCN)C(=O)N[C@@H](CC(C)C)C(=O)N[C@@H](CCCCN)C(=O)N[C@@H](CCCCN)C(=O)N[C@@H](CCCCN)C(=O)N[C@@H](CC(C)C)C(=O)N[C@@H](CC(C)C)C(N)=O [MU 39] (Ac-LKKLKKKLLLKKLKKKLL-NH2) | 30 | – | –
CC[C@H](C)[C@H](NC(=O)[C@@H](NC(=O)[C@H](CCCNC(=N)N)NC(=O)[C@H](CCCCN)NC(=O)[C@H](CCCNC(=N)N)NC(=O)[C@@H](NC(=O)[C@H](CCCCN)NC(=O)[C@H](CCCNC(=N)N)NC(=O)[C@@H](NC(=O)[C@@H](NC(=O)[C@@H](NC(=O)[C@H](CCCNC(=N)N)NC(=O)[C@H](CCCCN)NC(=O)[C@H](CCCNC(=N)N)NC(=O)[C@@H](NC(=O)[C@H](CCCCN)NC(=O)[C@H](CCCNC(=N)N)NC(=O)[C@@H](NC(C)=O)[C@@H](C)CC)[C@@H](C)CC)[C@@H](C)CC)[C@@H](C)CC)[C@@H](C)CC)[C@@H](C)CC)[C@@H](C)CC)C(N)=O [MU 8] (Ac-IRKIRKRIIIRKIRKRII-NH2) | > 30 | – | –
CC(=O)N[C@@H](CC(C)C)C(=O)N[C@@H](CCCNC(=N)N)C(=O)N[C@@H](CCCCN)C(=O)N[C@@H](CC(C)C)C(=O)N[C@@H](CCCNC(=N)N)C(=O)N[C@@H](CCCCN)C(=O)N[C@@H](CCCNC(=N)N)C(=O)N[C@@H](CC(C)C)C(=O)N[C@@H](CCCNC(=N)N)C(=O)N[C@@H](CCCCN)C(=O)N[C@@H](CC(C)C)C(=O)N[C@@H](CCCNC(=N)N)C(=O)N[C@@H](CCCCN)C(=O)N[C@@H](CCCNC(=N)N)C(N)=O [GIN 8] (Ac-LRKLRKRLRKLRKR-NH2) | 13 | had efficacy | –
CC(=O)N[C@@H](CC(C)C)C(=O)N[C@@H](CCCNC(=N)N)C(=O)N[C@@H](CCCCN)C(=O)N[C@@H](CC(C)C)C(=O)N[C@@H](CCCNC(=N)N)C(=O)N[C@@H](CCCCN)C(=O)N[C@@H](CCCNC(=N)N)C(=O)N[C@@H](CC(C)C)C(=O)N[C@@H](CC(C)C)C(=O)N[C@@H](CC(C)C)C(=O)N[C@@H](CCCNC(=N)N)C(=O)N[C@@H](CCCCN)C(=O)N[C@@H](CC(C)C)C(=O)N[C@@H](CCCNC(=N)N)C(=O)N[C@@H](CCCCN)C(N)=O [GIN 4] (Ac-LRKLRKRLLLRKLRK-NH2) | 29.5 | no, or poor, efficacy | –
CSCC[C@H](NC(=O)[C@H](CCSC)NC(=O)[C@H](CCCNC(=N)N)NC(=O)[C@H](CCCCN)NC(=O)[C@H](CCCNC(=N)N)NC(=O)[C@H](CCSC)NC(=O)[C@H](CCCCN)NC(=O)[C@H](CCCNC(=N)N)NC(=O)[C@H](CCSC)NC(=O)[C@H](CCSC)NC(=O)[C@H](CCSC)NC(=O)[C@H](CCCNC(=N)N)NC(=O)[C@H](CCCCN)NC(=O)[C@H](CCCNC(=N)N)NC(=O)[C@H](CCSC)NC(=O)[C@H](CCCCN)NC(=O)[C@H](CCCNC(=N)N)NC(=O)[C@H](CCSC)NC(C)=O)C(N)=O [GIN 40] (Ac-MRKMRKRMMMRKMRKRMM-NH2) | > 30 | – | –
CSCC[C@H](NC(=O)[C@H](CCC(=O)O)NC(=O)[C@H](CCC(=O)O)NC(=O)[C@H](CCSC)NC(=O)[C@H](CCCNC(=N)N)NC(=O)[C@H](C)NC(=O)[C@H](CCCNC(=N)N)NC(=O)[C@H](CC(C)C)NC(=O)[C@H](CCCNC(=N)N)NC(=O)[C@H](CCSC)NC(=O)[C@H](CCC(=O)O)NC(=O)[C@H](CCC(=O)O)NC(=O)[C@H](CCSC)NC(=O)[C@H](CCCNC(=N)N)NC(=O)[C@H](C)NC(=O)[C@H](CCCNC(=N)N)NC(=O)[C@H](CC(C)C)NC(=O)[C@H](CCCNC(=N)N)NC(C)=O)C(N)=O [GIN 15] (Ac-RLRARMEEMRLRARMEEM-NH2) | > 40 | no, or poor, efficacy | –
RLLLRKLRKRLL [GIN 3] | – | no, or poor, efficacy | No
CC(=O)N[C@@H](CC(C)C)C(=O)N[C@@H](CCCNC(=N)N)C(=O)N[C@@H](CCCNC(=N)N)C(=O)N[C@@H](CC(C)C)C(=O)N[C@@H](CCCNC(=N)N)C(=O)N[C@@H](CCCNC(=N)N)C(=O)N[C@@H](CCCNC(=N)N)C(=O)N[C@@H](CC(C)C)C(=O)N[C@@H](CC(C)C)C(=O)N[C@@H](CC(C)C)C(=O)N[C@@H](CCCNC(=N)N)C(=O)N[C@@H](CCCNC(=N)N)C(=O)N[C@@H](CC(C)C)C(=O)N[C@@H](CCCNC(=N)N)C(=O)N[C@@H](CCCNC(=N)N)C(=O)N[C@@H](CCCNC(=N)N)C(=O)N[C@@H](CC(C)C)C(=O)N[C@@H](CC(C)C)C(N)=O [MU 38] (Ac-LRRLRRRLLLRRLRRRLL-NH2) | > 30 | – | –
